According to patent US8940325B2, “Use of synthetic polysulphated oligosaccharides as cleaning agents for a wound” (Laboratories Urgo, priority 2010, dated 2015):

Molecular target: T1, fibrin matrix (Homo sapiens, UniProt P02671+P02675+P02679)
T1 construct: 15 mg of human plasma fibrinogen (Sigma-Aldrich Catalog); purchased Sigma-Aldrich; host or cells: human plasma
T1 sequence (P02671 20-644 isoform P02671-2 limits assumed): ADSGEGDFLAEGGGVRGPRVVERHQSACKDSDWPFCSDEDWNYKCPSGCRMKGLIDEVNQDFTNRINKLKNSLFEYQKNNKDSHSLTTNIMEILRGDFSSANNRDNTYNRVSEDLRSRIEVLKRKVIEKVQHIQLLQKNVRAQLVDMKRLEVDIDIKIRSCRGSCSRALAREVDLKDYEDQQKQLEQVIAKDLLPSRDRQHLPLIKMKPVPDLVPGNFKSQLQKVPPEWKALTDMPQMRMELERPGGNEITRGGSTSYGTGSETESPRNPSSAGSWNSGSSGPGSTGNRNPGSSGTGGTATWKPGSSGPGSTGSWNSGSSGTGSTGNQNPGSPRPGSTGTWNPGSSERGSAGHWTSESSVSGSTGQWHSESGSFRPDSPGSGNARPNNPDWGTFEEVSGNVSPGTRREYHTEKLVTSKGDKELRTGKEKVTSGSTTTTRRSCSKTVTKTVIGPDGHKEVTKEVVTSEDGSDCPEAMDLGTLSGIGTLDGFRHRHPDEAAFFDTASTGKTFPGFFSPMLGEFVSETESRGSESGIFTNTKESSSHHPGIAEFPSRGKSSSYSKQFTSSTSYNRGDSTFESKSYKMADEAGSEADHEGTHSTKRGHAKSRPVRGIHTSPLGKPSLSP
T1 sequence (P02675 45-491 limits assumed): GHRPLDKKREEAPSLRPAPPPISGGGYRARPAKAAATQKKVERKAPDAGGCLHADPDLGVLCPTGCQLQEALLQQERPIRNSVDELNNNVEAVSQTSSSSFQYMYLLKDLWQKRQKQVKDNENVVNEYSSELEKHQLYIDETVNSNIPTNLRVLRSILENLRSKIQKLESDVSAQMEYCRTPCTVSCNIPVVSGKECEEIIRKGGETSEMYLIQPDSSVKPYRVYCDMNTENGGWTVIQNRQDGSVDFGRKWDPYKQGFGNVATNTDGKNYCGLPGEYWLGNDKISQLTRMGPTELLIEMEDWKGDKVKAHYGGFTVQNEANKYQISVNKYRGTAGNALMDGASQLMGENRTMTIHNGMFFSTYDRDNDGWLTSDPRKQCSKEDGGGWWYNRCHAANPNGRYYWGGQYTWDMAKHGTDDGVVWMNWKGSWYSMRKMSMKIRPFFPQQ
T1 sequence (P02679 27-437 isoform P02679-2 limits assumed): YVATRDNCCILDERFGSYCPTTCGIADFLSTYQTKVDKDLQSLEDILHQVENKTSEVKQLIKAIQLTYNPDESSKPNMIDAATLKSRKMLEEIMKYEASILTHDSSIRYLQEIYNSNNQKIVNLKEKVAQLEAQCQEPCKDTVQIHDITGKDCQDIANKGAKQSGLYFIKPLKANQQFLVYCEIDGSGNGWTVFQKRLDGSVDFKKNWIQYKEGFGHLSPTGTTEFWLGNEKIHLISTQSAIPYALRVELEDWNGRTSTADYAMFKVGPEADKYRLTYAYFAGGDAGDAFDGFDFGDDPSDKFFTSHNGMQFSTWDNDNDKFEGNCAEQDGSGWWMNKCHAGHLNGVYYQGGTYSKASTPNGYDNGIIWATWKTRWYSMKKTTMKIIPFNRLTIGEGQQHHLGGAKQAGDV
Assay: Degradation of fibrin matrix prepared in vitro (visual observation and PDF determination)
Type: biochemical
Conditions: solution at 10 g/l, 48 hours
Experimental: The fibrin matrices were prepared according to Brown's protocol described in the work “Fibroblast migration in fibrin gel matrices” Am J. Pathol, 1993, 142: 273-283.
The following were dissolved at 37° C.: • 5 ml of an aqueous solution comprising 50 millimoles of Hepes (Sigma-Aldrich Catalog) • 15 mg of human plasma fibrinogen (Sigma-Aldrich Catalog) • 5 millimoles of CaCl2.
50 μl of thrombin, 100 NIH of human plasma (Sigma-Aldrich Catalog) were added to the solution thus prepared.
The reaction mixture was mixed, put in a 15-ml tube (or a Petri dish of 60 mm diameter) and then left to incubate at 37° C.
During the first 24 hours of incubation at 37° C., a fibrin matrix which has roughly the appearance of a gel was seen to appear.
In parallel, a control solution was prepared free from the test compound with phosphate-buffered saline (PBS).
The degradation of the fibrin matrix was monitored visually over the next 24 and 48 hours. […]
In order to quantify and verify that the observations made do indeed correspond to degradation of the fibrin matrix, the products of degradation of fibrin (PDFs) were determined 24 hours or 48 hours after adding the solutions of the test compound. […]
This solution was tested according to the protocol described above and the PDFs were measured 48 hours after adding the solution to the fibrin matrix. […]

O=S(=O)([O-])OC[C@H]1O[C@@](COS(=O)(=O)[O-])(O[C@H]2O[C@H](COS(=O)(=O)[O-])[C@@H](OS(=O)(=O)[O-])[C@H](OS(=O)(=O)[O-])[C@H]2OS(=O)(=O)[O-])[C@@H](OS(=O)(=O)[O-])[C@@H]1OS(=O)(=O)[O-].[K+].[K+].[K+].[K+].[K+].[K+].[K+].[K+] [potassium salt of sucrose octasulfate]
degradation of the fibrin matrix (level): partial degradation (if the value of the PDFs, expressed in μg/ml, is between 5 and 20, there is partial degradation of the fibrin matrix)
